Columns and labels:
Mia PACA-2 cells = test: Intracellular ROS (H2O2) by flow cytometry of DCF-labeled cells; type: cell-based, human; conditions: Mia PACA-2, 72 hours, serum or IGF-1; trans-resveratrol 100 μM, genistein 100 μM, DPI 15 μM, tiron 10 mM
Experimental: To determine the effect of serum in cancer cells, the following assay was conducted. Mia PACA-2 pancreatic cancer cells were cultured for 72 hours in the absence and presence of serum (15% FBS) or 100 ng/ml insulin growth factor-1 (IGF-1). Dichloroflyorescein diocetate (DCF-DA) was used to label the cells. Intracellular H2O2 was measured by flow cytometry of DCF-labeled cells. Intracellular ROS was measured using oxidation-sensitive cell-permeable fluorescent probe, dichlorofluorescein diacetate (DCF-DA) to measure H2O2. See Royall J A, and Ischiropoulos H. (1993) Arch. Biochem. Biophys. 302:348-355. To measure ROS, cells were collected after incubation, washed with PBS, and incubated for 15 minutes with […] DCF-DA. Samples were analyzed by flow cytometry. The amount of DCF-DA fluorescence correlated with the amount of ROS in the cells To determine the effects of serum, IGF-1, polyphenols and inhibitors of ROS on ROS production in cancer cells, the following assay was conducted. Mia PACA-2 cells were cultured for 72 hours in the presence of serum or IGF-1 with or without antioxidants, intracellular superoxide scavenger tiron (10 mM) or NADPH oxidase inhibitor, diphenylene iodonium (DPI, 15 μM) and trans-resveratrol (100 μM), genistein (100 μM), or a combination of polyphenolic compounds and antioxidants. Intracellular H2O2 was measured by flow cytometry of DCF-labeled cells. Mia PACA-2 cells and BSp73AS cells were cultured in Dulbecco's Modified Eagle's Medium supplemented with 10% heat inactivated FBS, penicillin G (100 U/ml) and streptomycin ([…]) in a humidified atmosphere comprising 5% (v/v) CO2. When the cells were 90% confluent they were detached, washed with alternating centrifugation and resuspension, plated and incubated in the same media with or without FBS or IGF-1 and with or without a given polyphenolic compound and with or without a given ROS inhibitor.

PARP = PARP proteolysis (Western blot); type: cell-based, rat; conditions: BSp73AS, 6 hours, 100 μM
Experimental: BSp73AS cells were cultured for 6 hours and Mia PACA-2 cells were cultured for 24 hours in the presence or absence of 100 μM of each rutin, quercetin or trans-resveratrol and with or without 50 μM of each […]. The cells were washed twice with PBS and lysed by incubating for 20 minutes at 4° C. in lysis buffer comprising 0.15 M NaCl, 50 mM Tris (pH 7.2), 1% deoxycholic acid (wt/vol), 1% Triton X-100 (wt/vol), 0.1% […] (wt/vol) and 1 mM PMSF, as well as 5 μg/ml each of protease inhibitors, pepstatin, leupeptin, chymostatin, antipain, and aprotinin. Then the cell lysates were centrifuged for 20 minutes at 15,000 g at 4° C. The supernatants were separated by 4-20% SDS-PAGE for 2 hours at 120 V using precast Tris-glycine gels and a Mini-Cell gel apparatus (Novex, San Diego, Calif.). Separated proteins were electrophoretically transferred to a nitrocellulose membrane for 2 hours at 30 V using a Novex Blot Module (Novex, San Diego, Calif.). Nonspecific binding was blocked by 1 hour incubation of nitrocellulose membranes in 5% (wt/vol) nonfat dry milk in Tris-buffered saline (TBS; pH 7.5). Blots were then incubated overnight at 4° C. with rabbit polyclonal antibody against poly (ADP-ribose) polymerase (PARP) (Santa Cruz Biotechnology, Santa Cruz, Calif.) (1;3,000) in an antibody buffer comprising (1% (wt/vol) non-fat dry milk in TTBS (0.05% vol/vol) Tween-20 in TBS), washed 3 times with TTBS and finally incubated for 1 hour with a peroxidase-labeled secondary antibody in the antibody buffer. Blots were developed for visualization using ECL detection kit. To test for equal protein loading, the blots were stripped and re-probed with an antibody against tubulin. When processing of a protein was measured, a decrease in unprocessed full-length form was measured concomitantly with the increase in the cleaved, active form. The experiment was repeated 3 times with similar results.

caspase-3 [1] = test: Caspase-3 processing (Western blot); type: cell-based, rat; conditions: BSp73AS
Experimental: (§1) In order to determine the effect polyphenolic compounds have on caspase-3 activity, the following assay was conducted. BSp73AS cells were culture in the absence of serum or growth factors for 24 hours in 0, 10, 20, and 50 μM of trans-resveratrol and Mia PACA-2 -cells were cultured for 72 hours in the presences of 0, 10, 20, and 50 μM of tran-resveratrol. Cell lysates were then prepared and 50 μg protein aliquots were loaded per lane and blotted with rabbit polyclonal antibody against caspase-3 (Santa Cruz Biotechnology, Santa Cruz, Calif.). The experiment was repeated 3 times with similar results.

[2] = system: BSp73AS and Mia PACA-2 cells; test: Caspase-3 activity and annexin staining with MG-132 (FIG. 14C); type: cell-based; conditions: polyphenols 100 μM, MG-132 20 μM
Akt/PKB = Akt/PKB phosphorylation (Western blot); type: cell-based, human; conditions: Mia PACA-2, 72 hours, with serum; genistein 100 μM, LY294002 50 μM
Experimental: To determine whether phosphatidylinositol 3-kinase (PI 3-kinase) and Akt/PKB mediate the effects of serum on NF-κB activation and that the effects of polyphenolic compounds on NF-κB activation are due to an ability to inhibit PI 3-kinase, the following assays were conducted. Specifically, to determine the effects of serum, LY294002, a PI 3-kinase inhibitor, and genistein on Akt/PKB phosphorylation, Mia PACA-2 cells were cultured for 72 hours in the absence or presence of serum with or without 100 μM genistein (GN) or 50 μM LY294002. Western blots were performed on whole cell lysates as described above except that specific antibodies against phosphorylated and total Akt/PKB were used (Akt/PKB is Anti-pS473 AktpAB from Promega, Madison Wis. and total Akt is Akt ½ from Santa Cruz, Santa Cruz, Calif.). The membranes were then stripped and re-probed with an antibody against total Akt .

caspase-3 [3] = test: Caspase-3 processing (Western blot); type: cell-based, human
Experimental: as §1

| Compound | ROS production (intracellular H2O2, DCF fluorescence) (Mia PACA-2 cells) | PARP cleavage (PARP) | lowest concentration with effect on caspase-3 conversion (caspase-3 [1]; 24 hours (FIG. 6A)) [µM] | conversion of caspase-3 from inactive to active form (caspase-3 [1]; 24 hours, no serum, 0-50 μM (FIG. 6A)) | apoptosis (annexin staining) [2] | serum-induced Akt/PKB phosphorylation/activation (Akt/PKB) | lowest concentration with effect on caspase-3 conversion (caspase-3 [3]; Mia PACA-2, 72 hours (FIG. 7A)) [µM] | conversion of caspase-3 from inactive to active form (caspase-3 [3]; Mia PACA-2, 72 hours, 0-50 μM (FIG. 7A)) |
| --- | --- | --- | --- | --- | --- | --- | --- | --- |
| Oc1ccc(/C=C/c2cc(O)cc(O)c2)cc1 [trans-resveratrol] | small increase in ROS production | cleaved to its activated form | 20 | convert caspase-3 from its inactive form (32 kDa doublet) to its active form (17 kDa) | – | – | – | – |
| O=c1c(-c2ccc(O)cc2)coc2cc(O)cc(O)c12 [genistein] | small increase in ROS production | – | – | – | causes significant apoptosis | attenuated serum-induced Akt phosphorylation/activation | – | – |
| O=c1c(O)c(-c2ccc(O)c(O)c2)oc2cc(O)cc(O)c12 [quercetin] | – | cleaved to its activated form | – | – | – | – | 20 | convert caspase-3 from its inactive form (32 kDa doublet) to its active form (17 kDa) |

From US6953786B2, “Compositions comprising plant-derived polyphenolic compounds and inhibitors of reactive oxygen species and methods of using thereof” (The Regents of the University of California, priority 2002, dated 2005)
